The text below walks through data of patent US20250108142A1, “METHODS FOR TREATING LEAKAGE FROM A GASTROINTESTINAL SITE” (Ethicon, Inc., priority 2023, published 2025).

The series is described as follows: Release of ibuprofen from fibrin clot in an in vitro setting. The series is classed as physicochemical. The method, then: Release of ibuprofen from fibrin clot in an in vitro setting: A similar procedure was applied for ibuprofen embedded in fibrin sealant and for PLGA-ibuprofen embedded in fibrin sealant. […] This step was repeated 15 times (days). The ibuprofen concentration was measured by its UV signature, that is, UV absorption at 221 nm.

The structures appear in SMILES notation.

As for `CC(C)Cc1ccc(C(C)C(=O)O)cc1` (stereo not shown) [Ibuprofen, ibuprofen], the release profile result is “less than controlled manner”.
